Among the data in PubChem BioAssay (NCI) are TGI and GI50 values, retold here.

Test systems include A498 renal; ACHN renal; CAKI-1 renal; CCRF-CEM leukemia; LOX IMVI melanoma; TK-10 renal; EKVX NSCLC; BT-549 breast; MCF7 breast; MDA-MB-435.
Common to all, as to test: NCI anticancer screen, dose series, 48 h

Each structure is given as a SMILES string.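 Compound exposure: 48 hours, 5 concentrations, 96-well plates. Here, GI50 denotes the concentration required for 50% inhibition of growth. At the TGI there is no net growth.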 A value given as a limit tells only on which side of the number the result lay.

For `CN=NN(C)C(=O)NC`, the TGI with A498 renal, in the test with ACHN renal, in the test with CAKI-1 renal, in the test on CCRF-CEM leukemia, with LOX IMVI melanoma and with TK-10 renal was > 100 µM each time.

As to `O=C(CN1CCCCC1)N1CCc2c([nH]c3ccccc23)C1c1cccnc1` (stereo not given), the TGI in the test on A498 renal, in the test with ACHN renal, in the test with CAKI-1 renal, in the test with CCRF-CEM leukemia, in the test with EKVX NSCLC and in the test on LOX IMVI melanoma was > 100 µM in each case. The TGI in the test with TK-10 renal was > 100 µM.

For the compound `COC(=O)/C=C/C1C(C(=O)OC)C2(C(=O)OC)CCC1(C(=O)OC)N2` (stereo not given), the TGI in the test with A498 renal, in the test with ACHN renal, with CAKI-1 renal, with CCRF-CEM leukemia, in the test with EKVX NSCLC and in the test with LOX IMVI melanoma was > 100 µM throughout. Besides, in the test on TK-10 renal, the TGI was > 100 µM.

In the case of `Cc1ccc(N(CSc2ccc(Cl)cc2)CSc2ccc(Cl)cc2)cc1`, the GI50 is 2110 nM in the test on ACHN renal; 334 nM in the test with BT-549 breast; 829 nM in the test with CAKI-1 renal; 246 nM in the test on CCRF-CEM leukemia; 542 nM with EKVX NSCLC; 189 nM in the test with LOX IMVI melanoma. Moreover, the GI50 in the test with MCF7 breast is 2250 nM; in the test with MDA-MB-435, 927 nM; in the test on TK-10 renal, 4.88 µM. In addition, the TGI turned out to be 15.7 µM in the test with ACHN renal; 1.54 µM with BT-549 breast; 8.16 µM with CAKI-1 renal; 2.5 µM in the test with CCRF-CEM leukemia; 26 µM in the test on EKVX NSCLC; 0.694 µM in the test with LOX IMVI melanoma. Also, the TGI in the test with MCF7 breast was 12.1 µM; in the test on MDA-MB-435 it was 9.38 µM; in the test on TK-10 renal, > 100 µM.

For the compound `N#CC1Nc2ccccc2[C@@H](O)C1O` (stereo not given in full), the TGI in the test on ACHN renal, with CAKI-1 renal, in the test on CCRF-CEM leukemia, with EKVX NSCLC, with LOX IMVI melanoma and in the test on MCF7 breast was > 100 µM throughout. Besides, the TGI in the test on MDA-MB-435 and with TK-10 renal was > 100 µM in each case.

Regarding `N#CC(/C(=N/NC(=O)C(=O)NN)C(=O)NC12CC3CC(CC(C3)C1)C2)c1ccccc1` (stereo not given), the TGI in the test with A498 renal, in the test with ACHN renal, in the test with CAKI-1 renal, with CCRF-CEM leukemia, in the test with EKVX NSCLC and in the test with LOX IMVI melanoma was > 100 µM in each case. Besides, the TGI with TK-10 renal is > 100 µM.

For `CCOC(=O)c1[nH]c(COC(C)=O)c(CCCOC(C)=O)c1CCCOC(C)=O`, the TGI with A498 renal, with ACHN renal, in the test with CAKI-1 renal, in the test on CCRF-CEM leukemia, in the test on EKVX NSCLC and in the test on LOX IMVI melanoma was > 100 µM in each case. Further, in the test with TK-10 renal, the TGI was > 100 µM.

For `CCOC(=O)C1N(S(=O)(=O)c2ccc(C)cc2)CCC12C(c1ccc(OC)cc1)NC1CCCCC12` (stereo not given), the TGI with A498 renal, with ACHN renal, in the test on CAKI-1 renal, in the test with CCRF-CEM leukemia, with EKVX NSCLC and in the test with LOX IMVI melanoma was > 100 µM throughout. For the same compound, the TGI in the test on TK-10 renal was > 100 µM.

Take `CC1=C(C(=O)Nc2c(C)cccc2C)C(c2ccccc2Cl)C(C(=O)Nc2c(C)cccc2C)=C(C)N1`: the TGI with A498 renal, with ACHN renal, in the test on CAKI-1 renal, in the test on CCRF-CEM leukemia, in the test with EKVX NSCLC and with LOX IMVI melanoma was > 100 µM throughout. Besides, the TGI in the test on TK-10 renal is > 100 µM.

With `O=C(/C=C/c1c(O)ccc2ccccc12)c1ccc2ccccc2c1`, the TGI in the test with A498 renal, in the test with ACHN renal, with CAKI-1 renal, in the test on CCRF-CEM leukemia, in the test with EKVX NSCLC and with LOX IMVI melanoma was > 100 µM throughout. Besides, in the test on TK-10 renal, the TGI was > 100 µM.

Consider `Nc1c(C(=O)N/N=C/c2ccc(-c3ccc(Cl)cc3)o2)cnn1-c1ccnc2c(C(F)(F)F)cccc12`, for which the GI50 in the test with A498 renal, with ACHN renal, in the test on CAKI-1 renal, in the test on EKVX NSCLC, in the test on LOX IMVI melanoma and with MCF7 breast was > 100000 nM in each case. In addition, the values for the GI50 in the test on MDA-MB-435 and in the test with TK-10 renal were > 100000 nM and > 100 µM, respectively. Besides, the TGI with A498 renal, in the test with ACHN renal, with CAKI-1 renal, with EKVX NSCLC, in the test on LOX IMVI melanoma and in the test with MCF7 breast was > 100 µM in each case. The TGI in the test with MDA-MB-435 and in the test on TK-10 renal was > 100 µM throughout.

Consider `CCCCCCCCCc1cc(=O)c2c(O)cccc2o1`, for which the TGI with ACHN renal is > 100 µM; in the test with CAKI-1 renal, > 100 µM; in the test with CCRF-CEM leukemia, > 100 µM; in the test on EKVX NSCLC it was > 100 µM; in the test on LOX IMVI melanoma, 72.3 µM; in the test with TK-10 renal, > 100 µM.

As for `O=C(CCC(=O)Nc1cccc(Cl)c1)CC(=O)c1ccc(Cl)cc1`, the TGI in the test on ACHN renal, with CAKI-1 renal, with LOX IMVI melanoma and in the test on TK-10 renal was > 100 µM throughout.

`CCN1C(=O)N(CC)C2C1NC(=S)N2/N=C/C=C/c1cccs1` (stereo not given): the GI50 with A498 renal is 85.5 nM; in the test on ACHN renal, 804 nM; with BT-549 breast it was 1200 nM; in the test on CAKI-1 renal it was 248 nM; in the test with CCRF-CEM leukemia, 396 nM; in the test with EKVX NSCLC it was 464 nM. Moreover, the figures for the GI50 in the test with LOX IMVI melanoma, with MCF7 breast and with TK-10 renal were 550 nM, 260 nM and > 47.5 µM, respectively. The TGI in the test on A498 renal is 0.539 µM; in the test on ACHN renal it was > 100 µM; in the test on BT-549 breast it was 9.09 µM; in the test with CAKI-1 renal, > 100 µM; in the test on CCRF-CEM leukemia it was > 100 µM; in the test with EKVX NSCLC, > 100 µM. Further, the TGI in the test with LOX IMVI melanoma, in the test on MCF7 breast and in the test on TK-10 renal was > 100 µM in each case.
